Data reported in article PMC8698672, “Selective Anticancer and Antimicrobial Metallodrugs Based on Gold(III) Dithiocarbamate Complexes” (Biomedicines, 2021).

How the values were obtained:
BSA = target: T1, BSA (Bos taurus, UniProt P02769); assay: BSA interaction, fluorescence quenching (Stern–Volmer); format: binding, bovine; settings: for bimolecular quenching constant kq: BSA 50 μM in PBS pH 7.4; for Stern–Volmer quenching constant KSV: BSA 50 μM in PBS pH 7.4, excitation 295 nm; for number of binding sites n: modified Stern–Volmer equation; for number of binding sites n, rounded (in brackets): whole number printed in brackets after n
T1 construct: purchased Sigma Aldrich
Method: BSA was commercially available from Sigma Aldrich. A 2 mM solution of BSA was prepared in PBS (10 mM, pH = 7.4). The final concentration of the stock BSA solution was checked by UV–Vis spectra (ε279 nm = 43,824 M^−1 cm^−1). The value obtained was the real concentration of the stock solution. A 6 mM stock solution of the gold complexes in DMSO was prepared and different aliquots of the gold complex were added to a 50 μM solution of BSA in PBS and placed in a quartz cuvette of 1 cm optical path. The fluorescence spectra were recorded on a Horiba Jobin Yvon (Bensheim, Germany) fluorolog FL-3-11 spectrometer. The samples were excited at 295 nm and the emission spectra were recorded in a range from 310 to 450 nm with emission slits set to 2 nm. The fluorescence was measured for 4 min after every addition of the gold complex aliquots. The fluorescence intensities of the PBS and the gold complexes were irrelevant under the described conditions.
The data were analyzed using the Stern−Volmer equation F0/F = 1 + KSV (gold complex) = 1 + Kqτ0 (gold complex) (τ0 = lifetime of BSA in absence of the quencher) to obtain the Stern−Volmer quenching constant (KSV) and the quenching rate constant (Kq). The binding constant (Kb) was quantified using the modified Stern−Volmer equation: log {(F0 − F)/F} = log Kb + n log (gold complex) (n = number of binding sites).
This intrinsic fluorescence is extremely sensitive to the environment, so any binding or interaction of molecules induces changes in the BSA emission spectrum. Consequently, interaction with BSA studies are based on monitoring the BSA luminescence in the range of 300–450 nm by adding increasing concentrations of Au(III) complexes (Figure 3a and Figure S6). The obtained fluorescence data were analyzed using the Stern–Volmer equation, which allows the Stern-Volmer quenching constant KSV and the bimolecular quenching constant kq to be calculated (Figure 3b). In most of the cases studied, the Stern–Volmer representation fit a straight line, indicative of a single quenching mode, either static or dynamic. In case of drug development, static quenching is usually required to probe an interaction between the drug and the protein. By studying the bimolecular quenching constant (kq), the operated quenching can be determined since this parameter represents the efficiency of quenching or how accessible the fluorophores are to the quencher. Dynamic quenching depends on diffusion processes, so a higher kq value than the diffusion-controlled rate constant of the biomolecule in water, 10^10 M^−1s^−1, may indicate a contribution of static quenching. […] Additionally, the modified Stern–Volmer equation permits the values of the binding constant (Kb) for each gold complex and the number of binding sites (n) to be calculated. According to the Kb values observed in Table 3, there was a moderated interaction force between complex-BSA. These values were higher than other reported for gold(I) complexes, but similar to the documented interactions for potential drugs based on ruthenium or nickel.

Caco-2 cells = assay: Cell cycle analysis, PI staining flow cytometry; format: cell-based, human; settings: 20 μM, 24 h
Method: After incubation with the complexes, the cells were collected, washed twice with PBS, fixed in 70% ice-cold ethanol, and stored at 4 °C for 24 h. After centrifugation, cells were resuspended in PBS containing PI (50 μg/mL) and RNase A (100 μg/mL). After incubation for 30 min at RT in the dark, PI-stained cells were analyzed for DNA content in a Gallios Flow Cytometer (Beckman Coulter). […] Cell cycle distribution was determined on a linear scale. The percentage of cells in cycle phases was determined using the Kaluza Analysis Software (Beckman Coulter).
To stop the uncontrolled replication of tumor cells is still one of the main aims in the chemotherapy field; thus, arresting the tumor cell cycle in as many stages as possible is considered crucial. […] As is known, the geometry and structure of the complex have a great impact on the action mechanism of the drug, so there are examples of gold(III) complexes that alter the cell cycle at the G0/G1 phase, but also others at G2/M phase.
Figure 5 Cell population (%) in each stage of the cell cycle obtained by flow cytometry after 24 h of incubation of the cells with DMSO (control) and gold(III) complexes 1, 5, and 6 (20 μM).

Caco-2/TC7 cells = assay: Oxidative stress damage, protein carbonyl levels (DNPH); format: cell-based, human; settings: 20 μM, 24 h
Method: Cell homogenates needed for this assay were prepared according to a previously described method. Protein oxidation was analyzed by carbonyl-level measurement as previously described. Cell homogenates were incubated with the classical carbonyl reagent 2,4-dinitrophenylhydrazine (DNPH), and protein carbonylation was measured spectrophotometrically at 375 nm. The results were calculated in nmol carbonyl groups mg^−1 protein.
According to the literature, gold complexes act as anticancer agents by the disruption of redox homeostasis. As a result, the concentration of ROS species rises and consequently, main biomolecules, such as lipids, proteins, or even DNA, can be oxidized. However, tumor cells present an overproduction of ROS species due to their high metabolism. The most common anticancer strategy is promoting a higher oxidative damage in biomolecules to trigger the apoptosis process. […] In this study, we evaluated the oxidation levels of the carbonyl groups present in proteins by the established method of 2,4-dinitrophenylhydrazine (DNPH).
Figure 6 Carbonyl levels (nmol mg^−1 protein) in Caco-2/TC7 cells treated with vehicle DMSO (control) or gold(III) complexes (24 h, 20 μM). Values are expressed as mean values ± SEM (n ≥ 6 experiments). ** p < 0.01; *** p < 0.001 vs. control.

[1] = tested on: Cryptococcus neoformans (Cn); assay: Antifungal MIC assay (CO-ADD); format: cell-based; settings: 36 h, 35 °C, inhibition ≥ 70%
Method: The antimicrobial assays were performed according to the protocols of the Community for Open Antimicrobial Drug Discovery (CO-ADD). […] All the sample preparation was done using liquid-handling robots.
The antifungal activity of all synthesized complexes was evaluated in two different fungi, Candida albicans (Ca) and Cryptococcus neoformans (Cn). Fungi strains were cultured for 3 days on yeast extract–peptone–dextrose (YPD) agar at 30 °C. A yeast suspension of 1 × 10^6 to 5 × 10^6 CFU/mL (as determined by OD530) was prepared from five colonies. The suspension was subsequently diluted and added to each well of the complex-containing plates, giving a final cell density of fungus suspension of 2.5 × 10^3 CFU/mL and a total volume of 50 μL. All plates were covered and incubated at 35 °C for 36 h without shaking. […] The absorbance was measured using a Biotek Multiflo Synergy HTX plate reader (Winooski, VT, USA). In both cases, the percentage of growth inhibition was calculated for each well, using the negative control (media only) and positive control (fungi without inhibitors) on the same plate. […] Due to a higher variance in growth and inhibition, a lower threshold was applied to the data for C. neoformans.

Row | Compound | bimolecular quenching constant kq (BSA) | Stern–Volmer quenching constant KSV (BSA) | number of binding sites n (BSA) | number of binding sites n, rounded (in brackets) (BSA) | effect on cell cycle (cells in G0/G1, S, G2/M phases) vs control (Caco-2 cells) | oxidized protein (carbonyl) levels vs control (Caco-2/TC7 cells) | MIC Cn [1]
1 | Cc1ccc(-c2ccccn2)[c]([Au+][S]C(=S)N(C)C)c1.F[P-](F)(F)(F)(F)F [Complex C1, [Au(tpy)(dmdtc)] PF6] | 1.3e+12 M⁻¹ s⁻¹ | 13000 M⁻¹ | 1.72 | 2 | did not have a significant impact | did not promote oxidative stress damage | 32 µg/mL
2 | CN(C)C(=S)[S][Au+][c]1ccccc1-c1ccccn1.F[P-](F)(F)(F)(F)F [Complex C2, [Au(ppy)(dmdtc)]PF6] | 1.37e+12 M⁻¹ s⁻¹ | 13700 M⁻¹ | 1.42 | 1 |  |  | 32 µg/mL
3 | CCN(CC)C(=S)[S][Au+][c]1cc(C)ccc1-c1ccccn1.F[P-](F)(F)(F)(F)F [Complex C3, [Au(tpy)(dedtc)]PF6] | 1.9e+12 M⁻¹ s⁻¹ | 19000 M⁻¹ | 0.95 | 1 |  |  | 2 µg/mL
4 | Cc1ccc2[c](c1)[Au-]1([S]C(N(Cc3ccccc3)Cc3ccccc3)=[S+]1)[n+]1ccccc1-2.F[P-](F)(F)(F)(F)F (centres unmarked) [Complex C5, [Au(tpy)(dbdtc)]PF6] | 4.43e+12 M⁻¹ s⁻¹ | 44300 M⁻¹ | 1.57 | 1–2 | did not have a significant impact | did not promote oxidative stress damage | 32 µg/mL
5 | F[P-](F)(F)(F)(F)F.S=C([S][Au+][c]1ccccc1-c1ccccn1)N(Cc1ccccc1)Cc1ccccc1 [Complex C6, [Au(ppy)(dbdtc)]PF6] | 6.44e+12 M⁻¹ s⁻¹ | 64400 M⁻¹ | 1.43 | 1 | did not have a significant impact | did not promote oxidative stress damage | 
6 | [Au(ppy)(dedtc)]PF6 [Complex C4] | 2.01e+12 M⁻¹ s⁻¹ | 20100 M⁻¹ | 1.18 | 1 |  |  | 32 µg/mL
